From PubChem BioAssay AID1250 (SRMLSC, 2008)
The source made the active and inactive calls.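 The calls were made as follows: active = inhibition of at least 30% at one or more tested concentrations; inactive = inhibition below 30% at every dose.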

Experiment: antiviral protection against BTV-induced cell death – arbovirus, BSR cells, confirmation (AID 1250)
Conditions: BSR cells, Bluetongue virus CPE, ATP luminescence, 72 h; at 20 µM (top of the series)

Structure (SMILES) | CPE inhibition
C=CCNC(=O)c1onc(CSc2ccc(C(C)C)cc2)c1C(=O)O | 1.33% (inactive)
CCOc1ccc2nc(NC(=O)C3=NN(c4ccccc4)C(=O)CC3)sc2c1 | 25% (inactive)
CCOc1ccc(NC(=O)Nc2cc(-c3ccccc3)sc2C(=O)OC)cc1 | 14.7% (inactive)
c1ccc(-c2csc3ncnc(NCCCN4CCOCC4)c23)cc1 | 4.19% (inactive)
COc1ccc(C(=O)Nc2sc3c(c2C(=O)O)CC(C)(C)OC3)cc1 | 27.2% (inactive)
COCCN1C(=O)/C(=C/c2ccc(Oc3ccc([N+](=O)[O-])cn3)c(OC)c2)SC1=Nc1ccccc1 | 25.6% (inactive)
O=C1c2[nH]nc(-c3ccccc3O)c2C(c2ccc(F)cc2)N1CC1CCCO1 (stereo not given) | 10.9% (inactive)
Cc1nn(Cc2ccccc2)c(Cl)c1C(=O)NC1CCCc2ccccc21 (stereo not given) | 16.5% (inactive)
COc1ccc(/C=C/c2nc(-c3ccccc3O)n[nH]2)cc1OC | 14% (inactive)
CC1CCN(C2=NC(=O)/C(=C/c3cn[nH]c3-c3ccccc3)S2)CC1 | -2.7% (inactive)
CCCc1cc(=O)[nH]c(SCc2ccc(C#N)cc2)n1 | 14.6% (inactive)
CC1CC(C)CN(c2nc(NCc3ccco3)nc(N)c2[N+](=O)[O-])C1 (stereo not given) | 25.5% (inactive)
CNc1ccccc1C(C)(C)c1cc(-c2cccc(OC)c2)no1 | 7.83% (inactive)
CN(C(=O)c1coc(=O)c2ccccc12)c1ccc(Br)cc1 | 18.4% (inactive)
N#Cc1c(-c2ccco2)nc(SCC(=O)Nc2ccc(S(N)(=O)=O)cc2)[nH]c1=O | 4.9% (inactive)
Cc1ccc(S(=O)(=O)N2CCN(Cc3cc(C(C)C)ccc3O)CC2)cc1 | 15.9% (inactive)
CCCCOc1ccc(C(O)C(CN2CCCCC2)c2ccccc2)cc1 (stereo not given) | 12.5% (inactive)
COc1cccc2sc(NN)nc12 | 15.8% (inactive)
COCC(C)n1c(SCc2nc3ccccc3c(=O)[nH]2)nc2ccccc2c1=O (stereo not given) | 29.9% (inactive)
CCOC1=C/C(=C/c2c(N)n3nc(-c4ccccc4)sc3nc2=O)C=CC1=O | 18% (inactive)
C=CCn1c(N)c(C(=O)NCc2cccnc2)sc1=S | 2.55% (inactive)
O=C(CN1CCCCCC1)N/N=C/c1cccs1 | -0.49% (inactive)
Cc1ccc(-n2cccc2/C=C2\C(=N)N3N=C(C(C)C)SC3=NC2=O)cc1 | 25.2% (inactive)
CCOc1cccc2sc(NN)nc12 | 14.3% (inactive)

Structure (SMILES) | CPE inhibition
CSc1nsc2nc(=O)c(/C=C3\C(C)=Nc4ccccc43)c(N)n12 | 23% (inactive)
CCOC(=O)c1c(-c2ccccc2)csc1NC(=S)N(CC)CC | 10.8% (inactive)
O=C(O)c1ccc(-c2nc(-c3ccc(Cl)cc3)cs2)cc1 | 16.2% (inactive)
C/C=C/c1ccc(OCCCCOc2ccccc2C(C)=O)c(OC)c1 | 11.9% (inactive)
Cc1ccc(-c2cc(-c3ccccc3)no2)c(O)c1 | 15.6% (inactive)
COc1ccc2cc(-c3cc(C(=O)O)c4ccccc4n3)ccc2c1 | 12.7% (inactive)
Cc1ccc(NC(=O)COc2ccc(Br)cc2CO)cc1 | 10.5% (inactive)
N=C(N)SCc1nc2ccccc2c(=O)n1-c1ccccc1 | -4.62% (inactive)
O=C(CSc1nnc(NC(=O)c2c(F)cccc2F)s1)Nc1ccc(F)cc1 | 3.41% (inactive)
Cc1csc(NC(=O)CN2C(=O)C3CC=CCC3C2=O)n1 (stereo not given) | 1.87% (inactive)
COCCn1c(-c2ccccc2Cl)nc2c(c(=O)c3ccccc3n2C)c1=O | 4.39% (inactive)
CCOC(=O)c1ccc(N2CCN(c3ccccc3F)CC2)c(NC(=O)Nc2ccccc2)c1 | 19.7% (inactive)
COc1cccc(CN=C2Nc3ccccc3CS2)c1 | -0.42% (inactive)
CC(C)Oc1cccc(C(=O)NC(=S)Nc2ccccc2)c1 | 6.77% (inactive)
CCCCCCCCCCCC(=O)NC(C(=O)O)C(O)c1ccccc1 (stereo not given) | 11.5% (inactive)
O=C(O)c1cc(-c2ccc(/C=N/Nc3ccc([N+](=O)[O-])cn3)o2)ccc1Cl | 21.4% (inactive)
O=S(=O)(Nc1ccc(-c2nnc(SCc3ccc(Cl)cc3)o2)cc1)c1ccccc1 | 7.09% (inactive)
N#Cc1c(SCc2cccc(Cl)c2)sc(C(=O)c2ccccc2)c1N | 25.2% (inactive)
Cc1cccc(/C(N)=N/OC(=O)COc2ccc(Cl)cc2)c1 | 5.92% (inactive)
CCOc1ccc(-n2c(C)cc(/C=C3/C(=N)N4C(=NC3=O)SN=C4S(C)(=O)=O)c2C)cc1 | 25.5% (inactive)
O=S(=O)(c1ccc(Oc2ccc(Cl)cc2)c(S(=O)(=O)N2CCCCC2)c1)N1CCCCC1 | 22.6% (inactive)
COc1ccccc1NC(=S)NCCSc1ccc(C)cc1 | 10.1% (inactive)
C#CCNC(=O)C1=C[C@H](c2cn(C(C)=O)c3ccccc23)C[C@H](OCc2ccc(CO)cc2)O1 | -0.3% (inactive)
COc1ccc(NC(=O)C(=O)N/N=C/c2cc(C)n(-c3cccc(Cl)c3Cl)c2C)c(OC)c1 | 20.7% (inactive)

Structure (SMILES) | CPE inhibition
COc1ccc(/C=C2/C(=O)N(CC3CCCO3)C(=S)N2C)c(OC)c1 (stereo not given) | 1.63% (inactive)
O=C(Nc1scc(-c2ccccc2)c1C(=O)O)c1ccco1 | 10.9% (inactive)
Cc1nc2c(C(=O)NCCC(C)C)c[nH]n2c(=O)c1Cl | 9.83% (inactive)
Cc1ccccc1N=C1SCC(=O)N1Cc1ccccc1 | 3.79% (inactive)
COc1cc(C(=O)Nc2sc(C)c(C)c2C(=O)O)cc(OC)c1OC | 26% (inactive)
Cc1cccc(C)c1Nc1nnc(SC/C(O)=C(\C#N)c2nc3ccccc3[nH]2)s1 | 16.8% (inactive)
O=C(CSCc1ccc(Cl)cc1)Nc1cccc(C(=O)Nc2ccccc2C(=O)O)c1 | 23.5% (inactive)
CC1=Nc2ccccc2/C1=C/c1c(N)n2c(S(=O)(=O)C(C)C)nsc2nc1=O | 19% (inactive)
C=C(C)CN(CC)C(=O)CSc1nc(O)cc(=O)n1C1CCCC1 | -1.91% (inactive)
COc1ccc2[nH]c(=O)c(CN(CCCN(C)C)C(=O)Nc3ccc(F)cc3)cc2c1 | 7.66% (inactive)
O=C(NC1CCN(Cc2ccccc2)CC1)c1cccc(S(=O)(=O)Nc2cc(C(F)(F)F)ccc2Cl)c1 | 21.7% (inactive)
CCCn1c(N)c(C(=O)CSc2nc3ccccc3c(=O)n2-c2ccc(OC)cc2)c(=O)[nH]c1=O | 1.41% (inactive)
COC(=O)c1c(-c2ccccc2)csc1N1C(=O)Nc2ccccc2N1O | 10.9% (inactive)
O=c1oc(/C=C/c2ccco2)nc2sc3c(c12)CCC3 | 21.9% (inactive)
Cc1c(C(=O)NC(Cc2ccccc2)c2nc3ccccc3[nH]2)cccc1[N+](=O)[O-] (stereo not given) | 13.5% (inactive)
CC(C)n1c(NCCc2ccccc2)nc2c1c(=O)n(C)c(=O)n2C | 7.91% (inactive)
O=C(O)c1ccc2[nH]c3c(c2c1)CSCC3 | 2.13% (inactive)
CC1=NN2C(=N)/C(=C\c3ccc(SCc4ccccc4)o3)C(=O)N=C2S1 | 21.1% (inactive)
CC(C)CSC1=NSC2=NC(=O)/C(=C\c3coc4ccccc4c3=O)C(=N)N12 | 14% (inactive)
CN1CCc2nc3sc(C#N)c(N)c3c(-c3cccs3)c2C1 | 10.1% (inactive)
O=C(O)c1cccc(NC(=S)NC(=O)c2ccc(-c3ccc(Cl)cc3)o2)c1 | 29.9% (inactive)
Cc1nn(CC(O)Cn2c3c(c4ccccc42)CCN(C)C3=O)c(C)c1Br (stereo not given) | 22.4% (inactive)
O=C(NNC(=O)c1cccs1)c1ccc([N+](=O)[O-])cc1 | 4.62% (inactive)
O=C(/C=C/c1ccc2c(c1)OCCCO2)c1ccc2ccccc2c1O | 18.2% (inactive)

Structure (SMILES) | CPE inhibition
FC(F)(F)c1ccc(Oc2ccc3ccccc3c2Br)nc1 | 1.17% (inactive)
O=C(O)c1ccccc1Sc1c([N+](=O)[O-])cc(C(F)(F)F)cc1[N+](=O)[O-] | 9.2% (inactive)
O=C(O)CSc1nnc(CNc2cccc(C(F)(F)F)c2)n1Cc1ccco1 | 3.89% (inactive)
Cc1ccc(C(CC(=O)O)Nc2nc(N3CCCCC3)nc(N3CCCCC3)n2)cc1 (stereo not given) | 9.28% (inactive)
N#CCCN(Cc1cccnc1)C(=S)Nc1ccc(OC(F)F)cc1 | 3.08% (inactive)
COCCCNCC1C(Oc2ccc(Cl)cc2)C(=O)N1c1ccccc1C (stereo not given) | 14.4% (inactive)
Cc1ccccc1N=C1NC(=O)/C(=C/c2cccn2-c2cccc(C(=O)O)c2)S1 | 21.3% (inactive)
O=C(O)/C(=C\c1ccc(-c2ccc(F)cc2)o1)c1ccccc1 | 24.5% (inactive)
Cc1ccc(N2CN=c3s/c(=C\c4ccccn4)c(=O)n3C2)cc1 | -1.84% (inactive)
CCCS(=O)(=O)n1nc(-c2ccc(OC)cc2OC)cc1N | -1.58% (inactive)
COC(=O)c1sccc1NC(=O)CSc1ccccc1NS(=O)(=O)c1ccc(Br)cc1 | 18.5% (inactive)
CCN(CC)C(=O)CSC1=N/C(=C/c2ccco2)C(=O)N1c1ccc(OC)c(Cl)c1 | 13.3% (inactive)
O=C(O)c1cc(N/N=C2/CC(c3ccccc3)Oc3ccccc32)ccc1Cl (stereo not given) | 16.6% (inactive)
CC(C)C(=O)Nc1nnc(SCC(=O)N2c3ccccc3CC2C)s1 (stereo not given) | 11.5% (inactive)
CCCc1c(OCCCCc2nn[nH]n2)ccc(C(C)=O)c1O | 12.8% (inactive)
CCc1nnc(NS(=O)(=O)c2ccc(NC(=O)COc3ccc4ccccc4c3)cc2)s1 | 25.7% (inactive)
O=C1c2ccccc2N2C(=O)c3ccccc3[C@H]2N1c1ccccc1 | 2.15% (inactive)
Cc1ccc(C2CC(=O)c3cnn(-c4nc(C)cc(C)n4)c3C2)cc1 (stereo not given) | 5.7% (inactive)
CCSc1nnc(NC(=O)c2ccc(C)cc2)s1 | 5.39% (inactive)
CCCn1c2c(c(O)c(C(=O)Nc3nc4ccccc4s3)c1=O)CCCC2 | 19.3% (inactive)
Brc1ccccc1/C=N/Nc1ccc2ccccc2n1 | 14.7% (inactive)
Cc1nc(NS(=O)(=O)c2ccccc2C)c2c3c(sc2n1)CCC3 | 27.6% (inactive)
O=CNCC(=O)NCCc1ccc(Cl)cc1 | 1.49% (inactive)
